These results are taken from US9174935B2, “Transition metal complexes of bis[thiohydrazide amide] compounds” (Synta Pharmaceuticals Corp., priority 2008, dated 2015).

One assay relates to M14 melanoma cells. The assay can be described thus: Cytotoxicity in confluent M14 cells, cell viability by CCK8 assay. Format: cell-based. Conditions: Homo sapiens, M14, 48 h. The procedure: M14 melanoma cells were seeded at 50,000 cells per well of 96-well plate in 100 μl of Dulbecco's minimum essential medium (DMEM) supplemented with 10% fetal bovine serum. Cells were cultured at 37° C. under 5% CO2-95% air. After 16 hours of incubation, the test compound was added to the cell culture. The compound was first diluted in 100% dimethyl sulfoxide (DMSO) at 400-fold of final concentrations actually used in the assay. The DMSO solution was next diluted 20 fold with the culture medium, and then finally added to the assay wells at another 20-fold dilution. The assay medium included the test compound with concentrations as indicated with 0.25% DMSO. Cell viability was measured with a CCK8 assay (as described in the Technical Manual for Cell Counting Kit-8, Product #CK04-11, CK04-13 and CK04-20, Dojindo Molecular Technologies, Inc. MD; Tantular, I. S. et al. Tropical Medicine and International Health, 8(6), 569-574, 2003) in the last 15 min after a 48 h incubation with the test compound. Each bar of the figure expresses average percent inhibition against vehicle (0.25% DMSO) control (n=4). Error bars indicate standard deviation.

In assay [1] the test system is stage IV metastatic melanoma. Conditions: in combination with paclitaxel, relative to patients treated with paclitaxel alone; cited from earlier work.

Take `CN(NC(=O)CC(=O)NN(C)C(=S)c1ccccc1)C(=S)c1ccccc1` [A]: in the assay on M14 melanoma cells, the IC50 is > 12.5 µM.

As for `CN(NC(=O)CC(=O)NN(C)C(=S)c1ccccc1)C(=S)c1ccccc1` [N-malonyl-bis(N′-methyl-N′-thiobenzoylhydrazide)], the time to progression entry in assay [1] is “increase the time to progression”.
